Measured values as given in article PMC3581696 (The Journal of General Physiology, 2013).

Columns and labels:
mEAG1 channel = target: T1, mEAG1 channel (Mus musculus, UniProt Q60603); assay: Inside-out patch-clamp of wild-type mEAG1 channels expressed in Xenopus oocytes; type: cell-based; conditions: 50 µM
T1 sequence (Q60603 1-989): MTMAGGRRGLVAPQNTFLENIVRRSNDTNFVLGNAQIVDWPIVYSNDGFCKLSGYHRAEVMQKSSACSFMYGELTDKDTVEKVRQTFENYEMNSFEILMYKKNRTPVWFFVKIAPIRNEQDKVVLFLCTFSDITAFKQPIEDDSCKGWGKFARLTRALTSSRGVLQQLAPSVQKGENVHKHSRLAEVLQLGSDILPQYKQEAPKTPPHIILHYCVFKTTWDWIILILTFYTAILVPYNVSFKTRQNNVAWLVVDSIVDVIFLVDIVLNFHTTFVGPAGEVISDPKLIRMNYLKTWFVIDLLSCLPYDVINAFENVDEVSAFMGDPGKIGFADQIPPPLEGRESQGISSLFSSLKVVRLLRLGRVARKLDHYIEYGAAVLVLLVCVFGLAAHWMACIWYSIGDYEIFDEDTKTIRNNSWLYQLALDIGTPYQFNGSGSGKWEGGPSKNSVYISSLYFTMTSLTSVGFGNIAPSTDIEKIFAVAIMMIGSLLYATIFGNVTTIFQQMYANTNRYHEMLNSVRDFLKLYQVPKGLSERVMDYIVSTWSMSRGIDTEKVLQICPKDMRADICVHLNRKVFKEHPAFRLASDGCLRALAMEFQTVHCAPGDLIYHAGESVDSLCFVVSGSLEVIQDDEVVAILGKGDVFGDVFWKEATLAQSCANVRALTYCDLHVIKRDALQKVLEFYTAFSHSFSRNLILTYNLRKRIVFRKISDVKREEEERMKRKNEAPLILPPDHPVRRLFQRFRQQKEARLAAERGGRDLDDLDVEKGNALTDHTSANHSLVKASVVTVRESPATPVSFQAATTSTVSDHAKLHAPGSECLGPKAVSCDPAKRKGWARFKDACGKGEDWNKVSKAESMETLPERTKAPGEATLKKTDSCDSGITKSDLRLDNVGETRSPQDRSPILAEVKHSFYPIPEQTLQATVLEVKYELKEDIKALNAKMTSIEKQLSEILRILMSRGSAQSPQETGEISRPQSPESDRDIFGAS

[1] = target: T2, purified C-linker/CNBHD of mEAG1 channels (Mus musculus, UniProt Q60603); assay: Tryptophan-to-flavonoid FRET binding assay; conditions: 100 µM flavonoid; 4 µM protein
T2 sequence (Q60603 505-702): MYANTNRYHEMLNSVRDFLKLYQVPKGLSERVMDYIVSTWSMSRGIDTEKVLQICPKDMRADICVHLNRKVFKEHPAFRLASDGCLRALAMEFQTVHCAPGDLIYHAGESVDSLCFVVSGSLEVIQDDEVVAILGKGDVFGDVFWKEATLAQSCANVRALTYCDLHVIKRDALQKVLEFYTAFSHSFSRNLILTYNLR

[2] = Solubility limit in recording / aqueous solutions; type: physicochemical; conditions: aqueous solutions

SMILES | effect on steady-state or kinetic properties of mEAG1 channel gating (mEAG1 channel) | decrease of peak fluorescence intensity of the C-linker/CNBHD at 341 nm [1] | solubility [2]
COc1ccc(-c2cc(=O)c3c(O)cc(O)cc3o2)cc1 [Acacetin, 5,7-dihydroxy-2-(4-methoxyphenyl)chromen-4-one] | did not alter | – | –
Oc1cc(O)c2c(c1)O[C@H](c1ccc(O)c(O)c1)[C@@H](O)C2 [Catechin, (2R,3S)-2-(3,4-dihydroxyphenyl)-3,4-dihydro-2H-chromene-3,5,7-triol] | did not alter | – | –
C[C@]12CC[C@@H]3c4ccc(O)cc4CC[C@H]3[C@@H]1CC[C@@H]2O [Estradiol, (17β)-estra-1,3,5(10)-triene-3,17-diol] | did not shift the voltage dependence or slow the deactivation | – | –
O=c1c(O)c(-c2ccc(O)c(O)c2)oc2cc(O)cc(O)c12 [Quercetin, 2-(3,4-dihydroxyphenyl)-3,5,7-trihydroxy-4H-chromen-4-one] | – | 51% | ≤ 150 µM
